The record followed here is patent publication US10112933B2, “Methods and compositions for treatment of fibrosis” (Baylor College of Medicine, priority 2013, dated 2018).

The experiment concerns breast cancer cell lines (MDA-MB-468, MDA-MB-231, MBA-MD-435, MCF7, MDA-MB-453). As to the kind of experiment: Breast cancer cell line apoptosis assay (nucleosome ELISA). It counts as cell-based, human. How it is done: Breast cancer cell line apoptosis assay. Human breast carcinoma cell lines MDA-MB-468, MDA-MB-231, MBA-MD-435 and MCF7 were kindly provided by Dr. Powel H. Brown (Breast Cancer Center, Baylor College of Medicine). Breast cancer cell line, MDA-MB-453 was kindly provided by Dr. Shou Jiang (Breast Cancer Center, Baylor College of Medicine). All cell lines were grown in DMEM medium supplemented with 10% fetal bovine serum (FBS), 25,000 units penicillin G, 25,000 ug streptomycin, and 131.4 mg L-Glutamine and cultured in the incubator under the condition of 95% air, 5% CO2 at 37° C. (Garcia et al., 2001). Cells were seeded at 2,500 cells/cm^2 into 12-well plates. At 80% confluency, cells were washed with PBS and supplemented with fresh medium containing compound or the topoisomerase I-inhibitor, camptothecin, at 0, 0.1, 03, 1, 3, 10, 30, 100, 300 μM. At 24 hours, treatment was terminated by removing the medium from each well. Cells were lysed with cell lysis buffer ([…] for 30 minutes at 25° C.). Cell lysate (200 μl) was centrifuged at 200×g for 10 minutes and […] of each supernatant was assayed for nucleosomes using the Cell Death Detection ELISA (Roche Applied Science) as described by the manufacturer. The percent maximum nucleosome level was calculated by dividing the nucleosome level by the maximum nucleosome level achieved in the assay and multiplying by 100. This value was plotted as a function of the log compound concentration and the best-fitting curve generated using 4-Parameter Logistic Model/Dose Response/XLfit 4.2, IDBS software.
On the technique in general: ELISA stands for enzyme-linked immunosorbent assay.

As for `O=C(O)c1ccc(C=CC(=O)c2ccc3c(c2)OCCO3)cc1` [Cpd3, 4-[3-(2,3-dihydro-1,4-benzodioxin-6-yl)-3-oxo-1-propen-1-yl]benzoic acid], the “apoptosis of breast cancer cell lines with constitutive Stat3 activation” value was “induced apoptosis preferentially”.
